Assay results published in the supplement of paper PMC10307832.

What was measured:
Experiment in all cases: relative viability (nuclei count vs DMSO), 5 days (fraction); higher = more cells survive
COR-L 105 = test system: COR-L 105
Summary of the method: (§1)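 Five library-drug doses in √10 steps were combined with a fixed anchor-drug dose, or a single drug was given alone, by pin tool to lung cancer cell lines in 1536-well plates the day after seeding. Nuclei were stained and counted after 5 days. Relative viability is the nuclei count in treated wells over that in vehicle wells, taken as the median of duplicate plates.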

COR-L23 = test system: COR-L23
Summary of the method: as §1

EPLC-272H = test system: EPLC-272H
Summary of the method: as §1

H3255 = test system: H3255
Summary of the method: as §1

HCC-15 = test system: HCC-15
Summary of the method: as §1

HCC-827 = test system: HCC-827
Summary of the method: as §1

LCLC-103H = test system: LCLC-103H
Summary of the method: as §1

NCI-H1437 = test system: NCI-H1437
Summary of the method: as §1

NCI-H1650 = test system: NCI-H1650
Summary of the method: as §1

NCI-H1651 = test system: NCI-H1651
Summary of the method: as §1

NCI-H1755 = test system: NCI-H1755
Summary of the method: as §1

NCI-H1792 = test system: NCI-H1792
Summary of the method: as §1

NCI-H1944 = test system: NCI-H1944
Summary of the method: as §1

NCI-H1975 = test system: NCI-H1975
Summary of the method: as §1

NCI-H2087 = test system: NCI-H2087
Summary of the method: as §1

NCI-H358 = test system: NCI-H358
Summary of the method: as §1

NCI-H520 = test system: NCI-H520
Summary of the method: as §1

NCI-H647 = test system: NCI-H647
Summary of the method: as §1

NCI-H650 = test system: NCI-H650
Summary of the method: as §1

NCI-H661 = test system: NCI-H661
Summary of the method: as §1

NCI-H727 = test system: NCI-H727
Summary of the method: as §1

Question: What does the source list for `COCC1(CO)C(=O)C2CCN1CC2` (centres undefined) [PRIMA-1MET] + C[C@@H](Oc1cc(-c2cnn(C3CCNCC3)c2)cnc1N)c1c(Cl)ccc(F)c1Cl [Crizotinib] (partner 1 µM)?
Answer: relative viability (COR-L 105; first compound 0.2 µM): 0.918; relative viability (COR-L 105; first compound 0.6325 µM): 0.664; relative viability (COR-L 105; first compound 2 µM): 0.74; relative viability (COR-L 105; first compound 6.325 µM): 0.782; relative viability (COR-L 105; first compound 20 µM): 0.254; relative viability (COR-L23; first compound 0.2 µM): 0.704; relative viability (COR-L23; first compound 0.6325 µM): 0.612; relative viability (COR-L23; first compound 2 µM): 0.61; relative viability (COR-L23; first compound 6.325 µM): 0.565; relative viability (COR-L23; first compound 20 µM): 0.0228; relative viability (EPLC-272H; first compound 0.2 µM): 0.989; relative viability (EPLC-272H; first compound 0.6325 µM): 0.867; relative viability (EPLC-272H; first compound 2 µM): 0.816; relative viability (EPLC-272H; first compound 6.325 µM): 0.851; relative viability (EPLC-272H; first compound 20 µM): 0.262; relative viability (H3255; first compound 0.2 µM): 0.898; relative viability (H3255; first compound 0.6325 µM): 0.682; relative viability (H3255; first compound 2 µM): 0.77; relative viability (H3255; first compound 6.325 µM): 0.991; relative viability (H3255; first compound 20 µM): 0.898; relative viability (HCC-15; first compound 0.2 µM): 0.925; relative viability (HCC-15; first compound 0.6325 µM): 0.786; relative viability (HCC-15; first compound 2 µM): 0.802; relative viability (HCC-15; first compound 6.325 µM): 0.807; relative viability (HCC-15; first compound 20 µM): 0.706; relative viability (HCC-827; first compound 0.2 µM): 1.06; relative viability (HCC-827; first compound 0.6325 µM): 0.813; relative viability (HCC-827; first compound 2 µM): 0.796; relative viability (HCC-827; first compound 6.325 µM): 0.978; relative viability (HCC-827; first compound 20 µM): 0.896; relative viability (LCLC-103H; first compound 0.2 µM): 1.16; relative viability (LCLC-103H; first compound 0.6325 µM): 1.05; relative viability (LCLC-103H; first compound 2 µM): 0.894; relative viability (LCLC-103H; first compound 6.325 µM): 1.11; relative viability (LCLC-103H; first compound 20 µM): 1.06; relative viability (NCI-H1437; first compound 0.2 µM): 1.07; relative viability (NCI-H1437; first compound 0.6325 µM): 0.896; relative viability (NCI-H1437; first compound 2 µM): 0.9; relative viability (NCI-H1437; first compound 6.325 µM): 0.991; relative viability (NCI-H1437; first compound 20 µM): 0.862; relative viability (NCI-H1650; first compound 0.2 µM): 1.22; relative viability (NCI-H1650; first compound 0.6325 µM): 1.02; relative viability (NCI-H1650; first compound 2 µM): 1; relative viability (NCI-H1650; first compound 6.325 µM): 0.992; relative viability (NCI-H1650; first compound 20 µM): 0.659; relative viability (NCI-H1651; first compound 0.2 µM): 0.991; relative viability (NCI-H1651; first compound 0.6325 µM): 0.788; relative viability (NCI-H1651; first compound 2 µM): 0.741; relative viability (NCI-H1651; first compound 6.325 µM): 0.955; relative viability (NCI-H1651; first compound 20 µM): 0.888; relative viability (NCI-H1755; first compound 0.2 µM): 0.996; relative viability (NCI-H1755; first compound 0.6325 µM): 0.825; relative viability (NCI-H1755; first compound 2 µM): 0.826; relative viability (NCI-H1755; first compound 6.325 µM): 0.915; relative viability (NCI-H1755; first compound 20 µM): 0.81; relative viability (NCI-H1792; first compound 0.2 µM): 1.08; relative viability (NCI-H1792; first compound 0.6325 µM): 0.884; relative viability (NCI-H1792; first compound 2 µM): 1.1; relative viability (NCI-H1792; first compound 6.325 µM): 0.991; relative viability (NCI-H1792; first compound 20 µM): 0.971; relative viability (NCI-H1944; first compound 0.2 µM): 1.36; relative viability (NCI-H1944; first compound 0.6325 µM): 0.817; relative viability (NCI-H1944; first compound 6.325 µM): 1.09; relative viability (NCI-H1944; first compound 20 µM): 1.06; relative viability (NCI-H1975; first compound 0.2 µM): 1.12; relative viability (NCI-H1975; first compound 0.6325 µM): 0.962; relative viability (NCI-H1975; first compound 2 µM): 0.938; relative viability (NCI-H1975; first compound 6.325 µM): 0.939; relative viability (NCI-H1975; first compound 20 µM): 0.828; relative viability (NCI-H2087; first compound 0.2 µM): 0.949; relative viability (NCI-H2087; first compound 0.6325 µM): 0.751; relative viability (NCI-H2087; first compound 2 µM): 0.474; relative viability (NCI-H2087; first compound 6.325 µM): 0.794; relative viability (NCI-H2087; first compound 20 µM): 0.805; relative viability (NCI-H358; first compound 0.2 µM): 0.688; relative viability (NCI-H358; first compound 0.6325 µM): 0.59; relative viability (NCI-H358; first compound 6.325 µM): 0.526; relative viability (NCI-H358; first compound 20 µM): 0.152; relative viability (NCI-H520; first compound 0.2 µM): 0.639; relative viability (NCI-H520; first compound 0.6325 µM): 0.841; relative viability (NCI-H520; first compound 6.325 µM): 0.659; relative viability (NCI-H520; first compound 20 µM): 0.135; relative viability (NCI-H647; first compound 0.2 µM): 1; relative viability (NCI-H647; first compound 0.6325 µM): 1.24; relative viability (NCI-H647; first compound 2 µM): 1.09; relative viability (NCI-H647; first compound 6.325 µM): 1.08; relative viability (NCI-H647; first compound 20 µM): 0.896; relative viability (NCI-H650; first compound 0.2 µM): 0.894; relative viability (NCI-H650; first compound 2 µM): 0.616; relative viability (NCI-H650; first compound 6.325 µM): 0.675; relative viability (NCI-H650; first compound 20 µM): 0.109; relative viability (NCI-H661; first compound 0.2 µM): 1.15; relative viability (NCI-H661; first compound 6.325 µM): 1.11; relative viability (NCI-H661; first compound 20 µM): 0.999; relative viability (NCI-H727; first compound 0.2 µM): 0.841; relative viability (NCI-H727; first compound 0.6325 µM): 0.873; relative viability (NCI-H727; first compound 2 µM): 0.82; relative viability (NCI-H727; first compound 6.325 µM): 0.715; relative viability (NCI-H727; first compound 20 µM): 0.117
